Blank lines part the entries; values can stand above or below the molecule they belong to.
What was measured:
Test in all cases: pyruvate kinase-lactate dehydrogenase coupled assay
MDD from A. thaliana = target: T1, MDD from A. thaliana (Arabidopsis thaliana, UniProt O23722); format: biochemical; conditions: co-substrate ATP; racemic (RS)-MVAPP
T1 construct: gene MVD1; synthetic gene, thrombin-cleavable 9-His tag (pHIS9GW), E. coli BL21(DE3)
T1 sequence (O23722 1-412): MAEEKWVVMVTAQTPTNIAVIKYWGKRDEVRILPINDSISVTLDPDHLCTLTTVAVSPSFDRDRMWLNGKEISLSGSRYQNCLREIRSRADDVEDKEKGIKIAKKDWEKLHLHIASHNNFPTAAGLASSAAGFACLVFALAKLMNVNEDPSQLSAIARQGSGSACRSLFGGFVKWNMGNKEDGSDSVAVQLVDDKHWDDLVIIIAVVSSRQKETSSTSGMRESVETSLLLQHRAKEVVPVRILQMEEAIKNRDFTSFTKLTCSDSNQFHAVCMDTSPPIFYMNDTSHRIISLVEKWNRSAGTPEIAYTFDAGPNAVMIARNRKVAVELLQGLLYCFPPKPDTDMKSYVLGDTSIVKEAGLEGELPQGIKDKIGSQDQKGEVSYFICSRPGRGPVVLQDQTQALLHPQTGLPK
Source text: pyruvate kinase-lactate dehydrogenase coupled assay on MDD from A. thaliana

IPK from T. adhaerens = target: T2, IPK from T. adhaerens (Trichoplax adhaerens, UniProt B3RKZ8); format: biochemical; conditions: co-substrate ATP; four IP concentrations, 2-100 µM
T2 construct: gene TRIADDRAFT_51825
T2 sequence (B3RKZ8 1-281): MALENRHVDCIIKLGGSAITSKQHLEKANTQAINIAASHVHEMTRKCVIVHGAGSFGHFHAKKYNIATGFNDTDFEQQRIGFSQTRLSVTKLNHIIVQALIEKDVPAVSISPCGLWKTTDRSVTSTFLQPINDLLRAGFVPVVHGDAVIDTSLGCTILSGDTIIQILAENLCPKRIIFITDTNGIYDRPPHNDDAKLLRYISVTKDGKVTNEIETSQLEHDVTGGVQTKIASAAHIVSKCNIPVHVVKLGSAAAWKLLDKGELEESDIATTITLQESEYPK

IPK from B. floridae [1] = target: T3, IPK from B. floridae (Branchiostoma floridae, UniProt A0A9J7KY69); format: biochemical; conditions: co-substrate ATP; Ki from the fit of the substrate's own saturation curve (substrate inhibition)
T3 construct: gene LOC118413305
T3 sequence (A0A9J7KY69 1-298): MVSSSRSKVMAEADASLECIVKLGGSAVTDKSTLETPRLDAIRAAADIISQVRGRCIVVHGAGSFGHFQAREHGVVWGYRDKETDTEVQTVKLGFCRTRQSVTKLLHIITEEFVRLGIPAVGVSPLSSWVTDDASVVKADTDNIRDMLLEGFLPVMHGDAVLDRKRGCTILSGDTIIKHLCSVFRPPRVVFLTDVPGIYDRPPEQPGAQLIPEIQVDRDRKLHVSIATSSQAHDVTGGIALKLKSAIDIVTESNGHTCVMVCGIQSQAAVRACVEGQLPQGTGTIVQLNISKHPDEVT
Source text: pyruvate kinase-lactate dehydrogenase coupled assay on IPK from B. floridae

IPK from B. floridae [2] = target: T3, IPK from B. floridae; format: biochemical; conditions: co-substrate ATP; fit with substrate inhibition
IPK from A. thaliana = target: T4, IPK from A. thaliana (Arabidopsis thaliana, UniProt Q8H1F7); format: biochemical; conditions: co-substrate ATP; Ki from the fit of the substrate's own saturation curve (substrate inhibition); four IP concentrations, 2-100 µM
T4 construct: synthetic gene, thrombin-cleavable 9-His tag (pHIS9GW), E. coli BL21(DE3)
T4 sequence (Q8H1F7 1-332): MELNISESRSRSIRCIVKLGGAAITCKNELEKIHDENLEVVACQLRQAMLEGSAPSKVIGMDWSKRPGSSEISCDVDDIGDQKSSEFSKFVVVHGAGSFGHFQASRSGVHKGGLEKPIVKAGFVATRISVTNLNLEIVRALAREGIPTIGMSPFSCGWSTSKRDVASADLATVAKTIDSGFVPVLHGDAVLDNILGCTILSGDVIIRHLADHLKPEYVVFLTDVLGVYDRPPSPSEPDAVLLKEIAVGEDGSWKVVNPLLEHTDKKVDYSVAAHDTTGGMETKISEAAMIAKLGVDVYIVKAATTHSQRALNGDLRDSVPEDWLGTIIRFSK

PMK from S. solfataricus = target: T5, PMK from S. solfataricus (Saccharolobus solfataricus, UniProt Q97UL6); format: biochemical; conditions: co-substrate ATP; Ki from the fit of the substrate's own saturation curve (substrate inhibition); racemic (RS)-MVAP
T5 construct: gene SSO2988; full length, N-terminal thrombin-cleavable 8-His tag (pET28a), E. coli BL21(DE3)
T5 sequence (Q97UL6 1-323): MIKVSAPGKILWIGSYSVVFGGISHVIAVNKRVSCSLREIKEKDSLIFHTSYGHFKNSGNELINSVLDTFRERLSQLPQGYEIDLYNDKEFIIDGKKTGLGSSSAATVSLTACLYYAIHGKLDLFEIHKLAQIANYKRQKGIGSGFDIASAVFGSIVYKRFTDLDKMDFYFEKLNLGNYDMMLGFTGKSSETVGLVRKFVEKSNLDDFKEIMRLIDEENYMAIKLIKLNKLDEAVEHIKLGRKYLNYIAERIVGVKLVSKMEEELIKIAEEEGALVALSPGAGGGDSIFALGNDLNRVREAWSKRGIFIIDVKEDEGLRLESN
Source text: (§1) pyruvate kinase-lactate dehydrogenase coupled assay on PMK from S. solfataricus

[3] = substrate: CC(O)(CCOP(=O)(O)O)CC(=O)O; format: biochemical, Saccharolobus solfataricus; conditions: co-substrate ATP; racemic (RS)-MVAP; fit with substrate inhibition
Source text: as §1

[4] = substrate: CC(O)(CCOP(=O)(O)O)CC(=O)O; format: biochemical, Roseiflexus castenholzii; conditions: co-substrate ATP, racemic (RS)-MVAP, below the organism's growth temperature (50 C and above)
Source text: pyruvate kinase-lactate dehydrogenase coupled assay on MPD from R. castenholzii (annotated MDD)

Km (MDD from A. thaliana): 15.7 µM
Molecule: CC(O)(CCOP(=O)(O)OP(=O)(O)O)CC(=O)O (racemic) [compound 5, diphosphomevalonate]

Km (IPK from T. adhaerens): 3.1 µM
Ki (μM) (IPK from B. floridae [1]): 2820 (± 1700) μM
Km (IPK from B. floridae [2]): 13.3 µM
Ki (μM) (IPK from A. thaliana): 522 (± 381) μM
Molecule: C=C(C)CCOP(=O)(O)O [compound 4, isopentenyl phosphate]

Ki (μM) (PMK from S. solfataricus): 5500 (± 2200) μM
Molecule: CC(O)(CCOP(=O)(O)O)CC(=O)O (racemic) [compound 3, phosphomevalonate]

Further lines, the molecule ahead of its results:

B1: PMK from S. solfataricus (Saccharolobus solfataricus P2) (protein)
chain: T5 sequence (Q97UL6 1-323)
notes: full length, N-terminal thrombin-cleavable 8-His tag (pET28a), E. coli BL21(DE3)
Km [3]: 23.1 (± 3.8) μM
kcat [3]: 1.98 ± 0.1 s⁻¹
kcat/Km [3]: 90000 ± 10000 M⁻¹ s⁻¹

B2: MPD from R. castenholzii (annotated MDD) (Roseiflexus castenholzii DSM 13941) (protein)
chain: MYHRPLERMPGLATAIPAPYADLVERMATADADLRAALRAHGLTWEEYPDLTGAARERGAAAALAYPMQGVLKYHGLSDWDYRIAFLPSVSLCNDAGHTLTLVEFDPDLATDCATINGHVARGRELERVRQSLDAIRAASGATVRARVMSRNVTRGTRMGKGLGSSAAASAALALAAIAALYGDEAAANRRLVSCMARLLAGSGCRSAAGGCSIWFSSPGMPHEDSFAVRLDDAGQLDDVRLITVPLDSRIGLKTEQAHLDAPGSALFRCWMLSRRDEALACIAAARTGDWRTLGQWAELDSMRLHGITMSGSLENKLIGWEPENIVLFRMCNDLRSSGVPVYCSTDTGPTAVFITHRDYEDAVVSAIEGLGLSLEAIRGRVAGPARLVDIAWAGGELGVAD
notes: synthetic gene, 9-His tag removed with thrombin, E. coli BL21(DE3), Mono Q and Superdex 200
Km [4]: 152 (± 38) μM
kcat [4]: 1.7 ± 0.1 s⁻¹
kcat/Km [4]: 11000 ± 3000 M⁻¹ s⁻¹

— article PMC3857490, “Discovery of a metabolic alternative to the classical mevalonate pathway” (eLife, 2013)
